# Data reported in PMC7203344, “Sirtuin 1 Inhibiting Thiocyanates (S1th)—A New Class of Isotype Selective Inhibitors of NAD^+ Dependent Lysine Deacetylases” (Frontiers in Oncology, 2020).
# Entries after “also recorded” stand apart in the source; their conditions may differ.
# What was measured:
# [1] = test system: HeLa cells; assay: Cell proliferation assay with HeLa cells; assay type: cell-based, human; conditions: EX-527 20 μM, S1th 13 12 μM, S1th 12 20 μM, S1th 10 30 μM; up to 120 h
# Experimental: (§1) 1.5 × 10^4 cells/well were seeded in 24-well plates and grown in DMEM 10% in presence of DMSO, 20 μM EX-527, 12 μM S1th 13, 20 μM S1th 12, or 30 μM S1th 10. The growth media containing the drugs was replaced every 48 h. Cells were collected and counted at the indicated times starting 24 h after seeding (0, 24, 48, 72, 96, and 120 h). The experiment was performed twice in duplicates.
# [2] = test system: γH2AX/H2AX levels in MEF cells; assay: γH2AX level determination by western blot; assay type: cell-based, mouse
# Experimental: Sirt1 WT and KO MEFS cells were treated with 10 μM EX-527, 12 μM S1th 13 (6), 20 μM S1th 12 (5), 30 μM S1th 10 (7) and 30 μM SirReal2 [Sirt2 inhibitor, synthesized according to ([62])] for 48 h. Oxidative stress was induced using 10 μM Camptothecin 2 h. Whole-cell extracts were performed according to the Dignam protocol ([63]). Primary antibodies used for the western blot were anti-H2AX and anti-γH2AX (ab11175 and ab2893 resp., Abcam, UK). Densiometric analysis of the western blots was performed with Quantity One software (Bio-Rad Laboratories, Inc., USA).
# [3] = target: T1, Sirt1 (Homo sapiens, UniProt Q96EB6); assay: Fluorescent thermal shift assay (FTSA), Sirt1; assay type: binding
# T1 construct: made in house; host or cells: E. coli BL21 Star (DE3)
# T1 sequence (Q96EB6 134-747): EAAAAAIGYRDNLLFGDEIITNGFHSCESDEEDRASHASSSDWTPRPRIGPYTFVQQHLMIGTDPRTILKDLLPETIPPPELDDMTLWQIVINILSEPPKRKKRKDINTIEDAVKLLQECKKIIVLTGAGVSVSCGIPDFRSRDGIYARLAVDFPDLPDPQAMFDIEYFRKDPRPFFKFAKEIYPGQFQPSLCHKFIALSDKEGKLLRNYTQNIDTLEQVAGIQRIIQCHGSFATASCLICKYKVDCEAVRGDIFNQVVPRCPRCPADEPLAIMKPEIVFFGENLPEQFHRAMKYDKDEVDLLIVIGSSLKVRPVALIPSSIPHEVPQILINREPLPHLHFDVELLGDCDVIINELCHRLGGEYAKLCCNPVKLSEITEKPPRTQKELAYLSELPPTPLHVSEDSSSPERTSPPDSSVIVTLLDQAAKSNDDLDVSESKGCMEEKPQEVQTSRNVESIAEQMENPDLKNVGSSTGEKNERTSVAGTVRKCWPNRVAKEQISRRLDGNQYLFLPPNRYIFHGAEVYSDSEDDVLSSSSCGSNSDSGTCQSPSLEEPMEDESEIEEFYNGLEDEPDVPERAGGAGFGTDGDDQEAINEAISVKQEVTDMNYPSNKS
# Experimental: In a 96-well plate (Hard-Shell® PCR-plates, 96-well, thin-wall, BioRAD, USA) 14 μL Sirt1_134−747 in assay buffer (0.3 mg/mL final assay concentration, 50 mM Tris/HCl, 137 mM NaCl, 2.7 mM KCl, 1 mM MgCL2, pH 8.0) were mixed with 1 μL inhibitor in DMSO (100 μM) or DMSO [final assay concentration 5% (v/v)] as a control and 5 μL SyproOrange (1:100 in assay buffer). The fluorescence intensity was monitored during a constant increase of temperature from 20 to 95°C, 1 K per 20 s, using a real-time-PCR-machine (C1000 TouchTM Thermal Cycler, CFX96TM Real-Time System, BioRAD, USA). Melting temperatures were calculated via GraphPad Prism according to a published procedure ([60]).
# [4] = test system: H3K9ac and p53K382ac in HeLa cells; assay: Analysis of acetylation status in HeLa cells by western blotting; assay type: cell-based, human; conditions: 48 h, concentrations as in proliferation assay
# Experimental: 5 × 10^4 cells were plated in 6-well plates and grown with the conditions and drug concentrations as described for the proliferation assay. Cells were harvested at 48 h and resuspendend in protein loading buffer. After sonication the samples were centrifuged at 14,000 rpm in an Eppendorf microcentrifuge (Eppendorf, DE) and the supernatants were analyzed by western-blot. The following antibodies were used: histone H3 (Cell Signaling #9715), histone H3K9ac (Cell Signaling # C5B11), GAPDH (Cell Signaling #D16H11), p53 (ThermoFisher #PA527822), and p53K382ac (Abcam 75754). Quantification was carried out using imageJ.
# [5] = test system: HeLa cells; assay: Colony forming assay with HeLa cells; assay type: cell-based, human; conditions: 7–10 days; concentrations as in proliferation assay
# Experimental: (§2) For colony assays, 50 cells per well were seeded in 6-well plates and grown in the same conditions with the same drug concentrations as for the proliferation assays. In this case, the growth media containing the drugs was replaced every 48 h. After 7–10 days, when isolated colonies were formed, wells were washed with PBS, and cells were fixed with cold methanol for 5 min at RT. Cells were stained with crystal violet for 10 min at RT and washed with H2O. Images were acquired using iBright (Thermo Fisher Scientific, MA, USA). For quantification, cells of each well were resuspended in 10% glacial acetic acid to dissolve crystal violet whose levels were monitored by measuring absorbance at 590 nm. The experiment was performed in duplicates.
# [6] = test system: MCF7 cells; assay: Colony forming assay with MCF7 cells; assay type: cell-based, human; conditions: concentrations as for HeLa
# Experimental: as §2
# [7] = test system: MCF7 cells; assay: Cell proliferation assay with MCF7 cells; assay type: cell-based, human; conditions: concentrations as for HeLa
# Experimental: as §1
# [8] = test system: HeLa cells; assay: Wound healing assay with HeLa cells; assay type: cell-based, human
# Experimental: For wound healing assay 6 × 10^5 cells per well were seeded in 6-well plates and grown for 24 h in DMEM containing 10% FBS. After 24 h, a lineal gap between cells was created in the middle of the plate by scratching the cell monolayer with a 1 mL pipette tip in the same position in each well. Once the scratching is done, plates were washed twice with PBS and then grown in DMEM containing 1% FBS and the drugs in the same concentrations as for the proliferation assay. As described previously, the growth media 1% FBS containing the drugs was replaced every 48 h. Images were acquired in an Optimal microscope (Leica microscopes, DE) using Leica Application Suite X (LAS X) every 24 h (0, 24, 48, and 72 h) until the gap closed. The quantification of the area of the gap at the indicated times was performed with Image J-MRI Wound Healing Tool. The experiment was performed only once.
structure (smiles),measurement,setting,value
"NC(=O)C1CCCc2c1[nH]c1ccc(Cl)cc21 (stereo not drawn) [EX-527, reference compound]",cell proliferation of HeLa cells,[1],significantly decreased cell proliferation
same,γH2AX/H2AX levels without Camptothecin,"[2]; 48 h, EX-527 10 μM, S1th 10 30 μM, S1th 12 20 μM, S1th 13 12 μM, SirReal2 30 μM",decreased
same,γH2AX/H2AX levels after addition of Camptothecin,"[2]; Camptothecin 10 μM 2 h, same inhibitor concentrations",strong decrease
same,effect on Tm of Sirt1 (in words),[3],barely effected; also recorded: very small shift or no shift at all
same,H3K9 acetylation in HeLa cells,[4],no hyperacetylation
same,p53K382 acetylation in HeLa cells,[4],increased acetylation levels
same,H3K9 acetylation in HeLa cells,[4]; listed as 1,did not show clear hyperacetylation
same,colony forming of HeLa cells,[5],completely suppressed colony forming
same,colony forming capabilities of MCF7 cells,[6],significantly decreased
same,cell proliferation of MCF7 cells,[7],only have a mild effect
same,"migration of HeLa cells (wound healing), 24 h","[8]; 24 h, concentrations as in proliferation assay, performed once",failed to impair migration
same,"wound healing of HeLa cells, 72 h",[8]; 72 h,mild effect on wound healing
